Assay [1] can be described thus: Body weight changes in four-vessel occlusion rats. The assay is classed as in vivo, rat. As to conditions: for Body weight, Day 7 / Body weight, Day 14 / Body weight, Day 21 / Body weight, Day 28 / Body weight, Day 0: Mean ± S.E.; for Body weight, Day 7 / Body weight, Day 14 / Body weight, Day 21 / Body weight, Day 28: 4-VO rats, oral daily: arundic acid 30, taltirelin 10, combination 10+3 mg/kg/day; for Body weight, Day 0: before administration, one week after 4-VO surgery, groups later given arundic acid 30, taltirelin 10, combination 10+3 mg/kg/day; for Body weight change in words: compared with Group 2 (control), until day 28, arundic acid 30, taltirelin 10, combination 10+3 mg/kg/day. The protocol: 7-week-old (body weight: 200 to 240 g) male Crl: Wistar rats were used for an experiment after acclimation for 1 week or more. During the experimental period, the rats were raised in an animal room maintained at a room temperature of 23±1° C. and a humidity of 55±5%, and illuminated for 12 hours (6:30-18:30); with ad libitum access to food (Oriental Yeast, CRF-1) and water.
Arundic acid ((R)-(−)-2-propyloctanoic acid: Lot No. CS04818-503, M.W.186.29, specific gravity: 0.908), which is an astrocyte function-improving agent, used in this test is a product synthesized by Chemical Soft Co., Ltd. Taltirelin hydrate (hereinafter referred to as taltirelin, M.W.463.47: N-[(4S)-1-methyl-2,6-dioxohexahydropyrimidine-4-carbonyl]-L-histidyl-L-prolinamide (Lot No. N16P)), which is a ataxia-improving agent, used in this test is a product purchased from Matrix Scientific. When arundic acid was to be administered at a dose of 30 mg/kg/5 mL, 1.61 mL of 1N NaOH was added to 300 mg (306 μL) of arundic acid to dissolve the arundic acid, and 48.084 mL of water or 0.5% CMC (carboxymethyl cellulose) was added to the resulting solution to make a total volume of 50 mL. In the experiment, a 10-fold concentrated arundic acid solution was prepared and adjusted for the concentration before use. When taltirelin was to be administered at a dose of 3 mg/kg or 10 mg/kg, taltirelin was dissolved in distilled water in a volume of 5 ml/kg. The test drug(s) were orally administered for 28 days (including Saturdays, Sundays, and public holidays), starting from 1 week after preparation of four-vessel occlusion models.
Five groups of rats (4 to 6 rats per group) were used. The details are as follows. Group 1 is a group that was not subjected to four-vessel occlusion. Groups 2 to 5 are groups that were subjected to four-vessel occlusion.
A vertebral artery cauterization surgery was performed in accordance with the method of Pulsinelli & Brierley (Pulsinelli, W. A. and Brierley, J. B.: Stroke 10, 267, 1979). More specifically, the rats anesthetized with Nem-ravona (registered trademark) and Butal (registered trademark) were fixed in the prone position to a brain stereotaxic apparatus, and the dorsal cervical skin and muscle layer were incised to expose the first cervical vertebra. The tips of the tweezers of a bipolar coagulator (Mizuho Ikakogyo Co., Ltd.; MICROID) were inserted into the alar foramina on both sides of the first cervical vertebra, and the vertebral artery running upward toward the cerebral base was bilaterally cut off by electrocauterization. The skin was then sutured. Subsequently, the rats were fixed again in the supine position to an experimental surgical table, and the ventral cervical skin was incised. After the bilateral common carotid arteries were separated from surrounding tissues and silk thread was looped around the arteries, the skin was sutured. After completion of the surgery, the rats were returned to a cage and observed. No behavioral abnormality was confirmed.
Twenty-four hours after vertebral artery cauterization by the above method, the rats under isoflurane inhalation anesthesia were fixed in the supine position for immobilization before common carotid artery ligation on the following day. The ventral cervical skin was incised again to expose bilateral common carotid arteries. First, the right-side common carotid artery was occluded with an artery clamp or Mosquito hemostat forceps (both forceps were covered with a silicone tube to reduce stimulus to the blood vessel wall). After about 60 seconds, the left-side common carotid artery was occluded in the same manner. Since righting reflex (RR) of rats during bilateral common carotid artery occlusion, i.e., rats with brain ischemia, was lost, immobilization in the supine-position seemed unnecessary. However, sudden movements, such as walking-like motions of four limbs or lateral turning, were observed. […]

For assay [2], the system named is hippocampal CA1 neuronal cells. The assay is described as follows: HE staining of hippocampus CA1, degree of neuronal death. The assay is classed as in vivo, rat. As to conditions: HE-stained specimens after 28 days of administration; arundic acid 30, taltirelin 10, combination 10+3 mg/kg/day. As for the experimental part: After completion of the Transfer test, the rats were anesthetized, and the chest cavity was opened to expose the heart. A ventricle was incised to insert a catheter from the heart to the carotid artery, and 50 mL or more of heparinized physiological saline was perfused. Subsequently, 50 mL or more of 4% paraformaldehyde phosphate buffer was perfused. The perfusion procedures were performed with ligation of the main artery. After perfusion-fixation, the brain was removed and immersion-fixed in 4% paraformaldehyde phosphate buffer.
20-μm serial thick frozen sections were prepared from this brain using a cryostat. Alternating serial sections were stained with hematoxylin-eosin. The degree of neuronal death in the stained tissue was semi-quantitatively evaluated under an optical microscope.

The subject of the next assay is reactive astrocytes. As to conditions: Patent Literature 2; cited from earlier work.
For assay [3], the system named is patients with Alzheimer's disease or patients with cerebrovascular dementia. As to conditions: reported in literature; cited from earlier work.
For assay [4], the system named is rats with anoxia-induced amnesia. To be noted: Non-patent Literature 1; cited from earlier work.
For assay [5], the system named is rats with lesioned bilateral regions including the ventral globus pallidus, substantia innominata, and preoptic area (BFs). To be noted: Non-patent Literature 1; cited from earlier work.

The text below walks through data of patent publication US10828303B2, “Composition comprising combination of TRH analog with arundic acid, and pharmaceutically acceptable salt of arundic acid” (Brivention Pharmaceutical (Shanghai) Inc., priority 2016, dated 2020).

SMILES strings stand for the structures.

As for `CCCCCC[C@@H](CCC)C(=O)O` [Arundic acid, (R)-(−)-2-propyloctanoic acid], in assay [1], the “Body weight, Day 7” value was determined as 255.5 ± 5.1 g; the “Body weight, Day 14” value is listed as 272.6 ± 7.4 g; the “Body weight, Day 21” value is on record as 288.0 ± 7.1 g; the “Body weight, Day 28” value is listed as 308.5 ± 5.0 g. In assay [1], the “Body weight, Day 0” value is reported as 228.7 ± 4.9 g and the “Body weight change in words” value is “favorable body weight increase”. In addition, the “Hippocampal CA1 neuronal cell death / regeneration, in words” value in assay [2] was “promoted regeneration of hippocampal CA1 neuronal cells”. In addition, the GABAA receptor responsiveness entry in the assay on reactive astrocytes is listed as “GABAA receptor responsiveness is recovered”.

With `CN1C(=O)C[C@@H](C(=O)N[C@@H](Cc2c[nH]cn2)C(=O)N2CCC[C@H]2C(N)=O)NC1=O` [Taltirelin, N-[(4S)-1-methyl-2,6-dioxohexahydropyrimidine-4-carbonyl]-L-histidyl-L-prolinamide], in assay [1], the “Body weight, Day 7” value is listed as 256.6 ± 8.7 g; the “Body weight, Day 14” value is listed as 272.3 ± 10.3 g; the “Body weight, Day 21” value is given as 291.3 ± 12.0 g; the “Body weight, Day 28” value amounted to 307.2 ± 12.2 g. In assay [1], the “Body weight, Day 0” value was 228.6 ± 4.5 g and the “Body weight change in words” value is on record as “favorable body weight increase”. Further, the “Hippocampal CA1 neuronal cell death / regeneration, in words” value in assay [2] is given as “shedding was observed”. In addition, the “Improvement effect compared with TRH” value in assay [3] is “higher improvement effect thereon than TRH”. For the same molecule, the “Memory retrieval, one-trial passive avoidance learning test” value in assay [4] is “improve memory retrieval”. The “Memory retrieval, active avoidance learning test” value in assay [5] was “improve memory retrieval”.
